Assay results published in the NIST ThermoML archive (doi:10.1016/j.jct.2004.12.014).
Numbers after ± are expanded uncertainties.

How the values were obtained:
[1] = excess molar enthalpy (molar enthalpy of mixing); xn = mol fraction of the nth substance listed; settings: 318.15 K, 101 kPa, Liquid
[2] = xn = mol fraction of the nth substance listed; settings: 318.15 K, 101 kPa, Liquid

CCCCCCCCCCCCCCC [pentadecane] + CCOC(=O)CC
Settings | excess molar enthalpy [kcal/mol] | excess molar volume [m3/mol]
[1], x2 = 0.1045 | 0.128 ± 0.00237 | –
[1], x2 = 0.2122 | 0.227 ± 0.00382 | –
[1], x2 = 0.3158 | 0.312 ± 0.00526 | –
[1], x2 = 0.4055 | 0.364 ± 0.00598 | –
[1], x2 = 0.4848 | 0.392 ± 0.00645 | –
[1], x2 = 0.5368 | 0.399 ± 0.00645 | –
[1], x2 = 0.5811 | 0.398 ± 0.00645 | –
[1], x2 = 0.6068 | 0.393 ± 0.00645 | –
[1], x2 = 0.6156 | 0.391 ± 0.00645 | –
[1], x2 = 0.6409 | 0.382 ± 0.00621 | –
[1], x2 = 0.6796 | 0.366 ± 0.00598 | –
[1], x2 = 0.7199 | 0.341 ± 0.00574 | –
[1], x2 = 0.761 | 0.313 ± 0.00526 | –
[1], x2 = 0.8036 | 0.273 ± 0.00454 | –
[1], x2 = 0.846 | 0.229 ± 0.00406 | –
[1], x2 = 0.8889 | 0.181 ± 0.00311 | –
[1], x2 = 0.9311 | 0.124 ± 0.00237 | –
[1], x2 = 0.9692 | 0.0613 ± 0.00148 | –
[2], x2 = 0.0586 | – | 2.35e-07 ± 1.7e-08
[2], x2 = 0.1287 | – | 4.67e-07 ± 1.8e-08
[2], x2 = 0.2483 | – | 8.47e-07 ± 1.9e-08
[2], x2 = 0.3372 | – | 1.053e-06 ± 2e-08
[2], x2 = 0.4269 | – | 1.184e-06 ± 2.1e-08
[2], x2 = 0.502 | – | 1.246e-06 ± 2.1e-08
[2], x2 = 0.5673 | – | 1.252e-06 ± 2.1e-08
[2], x2 = 0.6288 | – | 1.223e-06 ± 2.1e-08
[2], x2 = 0.6845 | – | 1.156e-06 ± 2.1e-08
[2], x2 = 0.7304 | – | 1.087e-06 ± 2.1e-08
[2], x2 = 0.7744 | – | 9.92e-07 ± 2e-08
[2], x2 = 0.8148 | – | 8.88e-07 ± 2e-08
[2], x2 = 0.8537 | – | 7.69e-07 ± 1.9e-08
[2], x2 = 0.8864 | – | 6.38e-07 ± 1.8e-08
[2], x2 = 0.919 | – | 5.21e-07 ± 1.8e-08
[2], x2 = 0.9481 | – | 3.55e-07 ± 1.7e-08
[2], x2 = 0.9742 | – | 1.89e-07 ± 1.6e-08

CCCCCCCCCCCCCCC [pentadecane] + CCCOC(=O)CC
Settings | excess molar enthalpy [kcal/mol] | excess molar volume [m3/mol]
[1], x2 = 0.0908 | 0.0969 ± 0.00191 | –
[1], x2 = 0.2077 | 0.193 ± 0.00335 | –
[1], x2 = 0.3159 | 0.265 ± 0.00454 | –
[1], x2 = 0.4097 | 0.309 ± 0.00526 | –
[1], x2 = 0.481 | 0.33 ± 0.0055 | –
[1], x2 = 0.538 | 0.336 ± 0.0055 | –
[1], x2 = 0.5826 | 0.333 ± 0.0055 | –
[1], x2 = 0.6208 | 0.327 ± 0.0055 | –
[1], x2 = 0.6333 | 0.322 ± 0.00526 | –
[1], x2 = 0.6724 | 0.307 ± 0.00502 | –
[1], x2 = 0.7191 | 0.284 ± 0.00478 | –
[1], x2 = 0.7668 | 0.255 ± 0.0043 | –
[1], x2 = 0.8087 | 0.224 ± 0.00382 | –
[1], x2 = 0.8594 | 0.181 ± 0.00311 | –
[1], x2 = 0.9086 | 0.128 ± 0.00239 | –
[1], x2 = 0.96 | 0.0654 ± 0.00146 | –
[2], x2 = 0.0571 | – | 1.92e-07 ± 1.6e-08
[2], x2 = 0.121 | – | 3.65e-07 ± 1.7e-08
[2], x2 = 0.2189 | – | 6.37e-07 ± 1.8e-08
[2], x2 = 0.3124 | – | 8.36e-07 ± 1.9e-08
[2], x2 = 0.3919 | – | 9.5e-07 ± 2e-08
[2], x2 = 0.4644 | – | 1.011e-06 ± 2e-08
[2], x2 = 0.5327 | – | 1.042e-06 ± 2e-08
[2], x2 = 0.5945 | – | 1.032e-06 ± 2e-08
[2], x2 = 0.6507 | – | 9.93e-07 ± 2e-08
[2], x2 = 0.7004 | – | 9.51e-07 ± 2e-08
[2], x2 = 0.7486 | – | 8.75e-07 ± 2e-08
[2], x2 = 0.7919 | – | 7.84e-07 ± 1.9e-08
[2], x2 = 0.8316 | – | 6.85e-07 ± 1.9e-08
[2], x2 = 0.8692 | – | 5.77e-07 ± 1.8e-08
[2], x2 = 0.9037 | – | 4.49e-07 ± 1.8e-08
[2], x2 = 0.9384 | – | 3.2e-07 ± 1.7e-08
[2], x2 = 0.9689 | – | 1.72e-07 ± 1.6e-08

CCCCOC(=O)CC [butyl propanoate] + CCCCCCCCCCC
Settings | excess molar enthalpy [kcal/mol] | excess molar volume [m3/mol]
[1], x1 = 0.0817 | 0.0786 ± 0.00163 | –
[1], x1 = 0.1628 | 0.132 ± 0.00239 | –
[1], x1 = 0.2473 | 0.183 ± 0.00311 | –
[1], x1 = 0.325 | 0.215 ± 0.00359 | –
[1], x1 = 0.3967 | 0.234 ± 0.00406 | –
[1], x1 = 0.463 | 0.243 ± 0.00406 | –
[1], x1 = 0.4868 | 0.243 ± 0.00406 | –
[1], x1 = 0.5197 | 0.243 ± 0.00406 | –
[1], x1 = 0.5243 | 0.242 ± 0.00406 | –
[1], x1 = 0.5644 | 0.239 ± 0.00406 | –
[1], x1 = 0.6091 | 0.232 ± 0.00406 | –
[1], x1 = 0.6567 | 0.224 ± 0.00382 | –
[1], x1 = 0.7051 | 0.201 ± 0.00359 | –
[1], x1 = 0.7582 | 0.175 ± 0.00311 | –
[1], x1 = 0.8113 | 0.147 ± 0.00263 | –
[1], x1 = 0.8642 | 0.114 ± 0.00215 | –
[1], x1 = 0.9137 | 0.0779 ± 0.0016 | –
[1], x1 = 0.9601 | 0.04 ± 0.00105 | –
[2], x1 = 0.0439 | – | 1.43e-07 ± 1.6e-08
[2], x1 = 0.0844 | – | 2.51e-07 ± 1.7e-08
[2], x1 = 0.1613 | – | 4.24e-07 ± 1.7e-08
[2], x1 = 0.2331 | – | 5.45e-07 ± 1.8e-08
[2], x1 = 0.3029 | – | 6.41e-07 ± 1.8e-08
[2], x1 = 0.3719 | – | 7.16e-07 ± 1.9e-08
[2], x1 = 0.4347 | – | 7.45e-07 ± 1.9e-08
[2], x1 = 0.4991 | – | 7.49e-07 ± 1.9e-08
[2], x1 = 0.5571 | – | 7.43e-07 ± 1.9e-08
[2], x1 = 0.6136 | – | 7.09e-07 ± 1.9e-08
[2], x1 = 0.6682 | – | 6.64e-07 ± 1.9e-08
[2], x1 = 0.7205 | – | 6.18e-07 ± 1.8e-08
[2], x1 = 0.7715 | – | 5.27e-07 ± 1.8e-08
[2], x1 = 0.8193 | – | 4.41e-07 ± 1.8e-08
[2], x1 = 0.8661 | – | 3.61e-07 ± 1.7e-08
[2], x1 = 0.9118 | – | 2.76e-07 ± 1.7e-08
[2], x1 = 0.9546 | – | 1.35e-07 ± 1.6e-08
